This is an account of results in PubChem BioAssay AID1963829 (Molecular Pharmacology Branch, DTP, NCI, 2024).

The test system of the assay is 935938-334-R-J1-PDC complex spheroid viability. Put plainly: Anticancer human tumor 935938-334-R-J1-PDC patient-derived small intestine adenocarcinoma cell line growth inhibition [POLQ]. The settings on record: for viability, T/C: stronger effect = lower value. As to the method:
Multicellular complex tumor spheroid response to Polymerase (POL) inhibitors (novobiocin, ART-558, RP6685) in combination with a variety of drugs and investigational agents in selected tumor cell lines
The POL inhibitors (novobiocin, ART-558, and RP6685) were evaluated both individually and in combination with standard of care and investigational anticancer small molecules within a complex spheroid model of solid tumors. . Complex spheroids include a stromal component modeled by human endothelial cells (HUVEC) and fibroblasts modeled by human mesenchymal stem cells (MSCs). The concentration ranges selected for each drug and investigational agent were based upon clinically achievable concentrations if the clinical Cmax of the agent was known.
Compounds. The drugs and investigational agents: novobiocin (NSC847541), ART-558 (NSC835418), RP-6685 (NSC848927), peposertib (NSC802822), ceralasertib (NSC780249), elimusertib (NSC800525), camonsertib (NSC841442), AZD-1390 (NSC803789), olaparib (NSC753686), talazoparib (NSC767125), rucaparib (NSC756644), sotorasib (NSC818433), MRTX-1133 (NSC836407), SN-38 (NSC673596), topotecan (NSC609699), epotoside (NSC141540), doxorubicin (NSC123127), gemcitabine (NSC613327), 5-fluorouracil (NSC19893), paclitaxel (NSC125973), vemurafenib (NSC761431), MSA-2 (NSC828583), SN-011 (NSC837082), adavosertib (NSC754352), prexasertib (NSC758257), carboplatin (NSC241240) and oxaliplatin (NSC266046), were obtained from the National Cancer Institute (NCI) Developmental Therapeutics Program Chemical Repository (21). The FDA-approved anticancer drug set is available from the Developmental Therapeutics Program at https://dtp.cancer.gov/organization/dscb/obtaining/. […] The stock solutions were prepared in dimethyl sulfoxide (DMSO, Sigma-Aldrich, St. Louis, MO, cat. D2650), except for the platinum compounds which were prepared in saline (Quality Biological, Gaithersburg, MD, cat. 114-055-101), at 800-fold the tested concentration and stored at -70 degrees C prior to their use. All drugs and investigational agents were tested over a range starting from a high concentration at or near the clinical Cmax and decreasing in half-log increments. If the clinical Cmax for an agent had not been determined, the highest concentration tested was 10 microM, except for SN-38, which was tested at a high concentration of 1 microM.
Cell Culture. All cells were maintained in an incubator at 37 degrees C and 5% CO2 with 95% humidity. The PDC lines were cultured according to standard operating procedures established by the NCI PDMR (https://pdmr.cancer.gov). Table 3 of the manuscript, lists the cell lines along with the number of the three cell types plated to form the mct-spheroids and media for tumor cell growth. After thawing, all PDC lines, except 997537-175-T-J1-PDC and 415267-285-R-J2-PDC, were cultured in Matrigel-coated flasks prepared with a working solution of 1X Ham's F-12 nutrient mix, without supplementation (Thermo Fisher Scientific, cat. 11765054), 100 U/mL penicillin-streptomycin (Thermo Fisher Scientific, cat. 15140122), and 2.5% Matrigel (Corning Inc., Corning, NY, cat. 354248) for the first three passages. The two PDC lines 997537-175-T-J1-PDC and 415267-285-R-J2-PDC were cultured on uncoated flasks. The 857933-349-R-J2-PDC line was cultured in 6C/Colon 1B media containing advanced DMEM/F-12 (Thermo Fisher Scientific, cat. 12634028), 10 mM HEPES (Thermo Fisher Scientific, cat. 15630080), 1X GlutaMAX supplement (Thermo Fisher Scientific, cat. 35050061), 0.1 mg/mL primocin (InvivoGen, San Diego, CA, cat. ant-pm-2), 10% defined fetal bovine serum, heat inactivated (HyClone Laboratories Inc., Logan, UT, cat. SH30070.03HI), 50% L-WRN conditioned media (ATCC, cat. CRL-3276), 1.25 mM N-Acetyl-L-cysteine (Sigma-Aldrich, cat. A9165), 10 mM nicotinamide (Sigma-Aldrich, cat. N0636), 1X B-27 supplement (Thermo Fisher Scientific, cat. 17504044), 1X N-2 supplement (Thermo Fisher Scientific, cat. […]

[1] abbreviates: curve of first compound, second compound 0.0316 µM.
Where [2] appears, read: curve of first compound, second compound 0.1 µM.
The mark [3] stands for this setting: curve of first compound, second compound 0.316 µM.
Setting [4] is: curve of first compound, second compound 1 µM.
[5] abbreviates: curve of first compound, second compound 3.16 µM.
The mark [6] stands for this setting: curve of first compound, second compound 10 µM.
Where [7] appears, read: second compound 0.0316 µM, first compound 0.0316 µM.
Where [8] appears, read: second compound 0.0316 µM, first compound 0.1 µM.
Where [9] appears, read: second compound 0.0316 µM, first compound 0.316 µM.
[10] abbreviates: second compound 0.0316 µM, first compound 1 µM.
Where [11] appears, read: second compound 0.1 µM, first compound 0.0316 µM.
Where [12] appears, read: second compound 0.1 µM, first compound 0.1 µM.
Setting [13] is: second compound 0.1 µM, first compound 0.316 µM.
Setting [14] is: second compound 0.1 µM, first compound 1 µM.
The mark [15] stands for this setting: second compound 0.316 µM, first compound 0.0316 µM.
Setting [16] is: second compound 0.316 µM, first compound 0.1 µM.
[17] abbreviates: second compound 0.316 µM, first compound 0.316 µM.
Where [18] appears, read: second compound 0.316 µM, first compound 1 µM.
Setting [19] is: second compound 1 µM, first compound 0.0316 µM.
[20] abbreviates: second compound 1 µM, first compound 0.1 µM.
Where [21] appears, read: second compound 1 µM, first compound 0.316 µM.
[22] abbreviates: second compound 1 µM, first compound 1 µM.
[23] abbreviates: second compound 3.16 µM, first compound 0.0316 µM.
The mark [24] stands for this setting: second compound 3.16 µM, first compound 0.1 µM.
Setting [25] is: second compound 3.16 µM, first compound 0.316 µM.
Setting [26] is: second compound 3.16 µM, first compound 1 µM.
The mark [27] stands for this setting: second compound 10 µM, first compound 0.0316 µM.
Setting [28] is: second compound 10 µM, first compound 0.1 µM.
[29] abbreviates: second compound 10 µM, first compound 0.316 µM.
[30] abbreviates: second compound 10 µM, first compound 1 µM.

pIC50: −log10 of the molar value. “And” between values parts separate entries of the source, which are not always exact repeats. Equal values may be shown once.
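Note: spheroids exposed to drugs for seven days before viability read.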
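Throughout, for viability, T/C: 100% = DMSO vehicle control wells.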

Turning to `COc1cccc2c1C(=O)c1c(O)c3c(c(O)c1C2=O)CC(O)(C(=O)CO)CC3OC1CC(N)C(O)C(C)O1` (configuration not stated), the viability, T/C by setting is: (compound 0.0316 µM) 68.8% and 69.1% and 56.6%; (compound 0.1 µM) 39.8% and 38.5% and 102%; (compound 0.316 µM) 25.9% and 33.7% and 25.3%; (compound 1 µM) 23.2% and 22.7% and 24.1%; (compound 3.16 µM) 7.61% and 6.31% and 3.97%; (compound 10 µM) 6.95% and 3.94% and 4.69%. The negative-log IC50 (pIC50) (curve of compound) was 7.15 and 7.10 and 6.73.
`CCc1c2c(nc3ccc(O)cc13)-c1cc3c(c(=O)n1C2)COC(=O)[C@]3(O)CC` + COC1C(OC(N)=O)C(O)C(Oc2ccc3c(O)c(NC(=O)c4ccc(O)c(CC=C(C)C)c4)c(=O)oc3c2C)OC1(C)C: the pIC50 reads like this: under setting [1], 7.78; under setting [2], 7.65; under setting [3], 7.75; under setting [4], 7.74; under setting [5], 7.86; under setting [6], 8.28. Also, the viability, T/C reads like this: (second compound 0.0316 µM, first compound 0.00316 µM) 82%; (second compound 0.0316 µM, first compound 0.01 µM) 59.3%; under setting [7], 38%; under setting [8], 29.4%; under setting [9], 22.9%; under setting [10], 27.8%. Also, the viability, T/C was 75.8% (second compound 0.1 µM, first compound 0.00316 µM); 73.7% (second compound 0.1 µM, first compound 0.01 µM); 40.1% under setting [11]; 29.6% under setting [12]; 28.7% under setting [13]; 30.5% under setting [14]. The viability, T/C runs as follows: (second compound 0.316 µM, first compound 0.00316 µM) 68%; (second compound 0.316 µM, first compound 0.01 µM) 63.8%; under setting [15], 36.2%; under setting [16], 27.3%; under setting [17], 29%; under setting [18], 22.4%. Besides, the viability, T/C (second compound 1 µM, first compound 0.00316 µM) was 62.9%; the viability, T/C (second compound 1 µM, first compound 0.01 µM) was 76.8%; the viability, T/C under setting [19] is 31.5%; the viability, T/C under setting [20] is 26.8%; the viability, T/C under setting [21] is 29.3%; the viability, T/C under setting [22] is 22.9%. For the same compound, the viability, T/C is, setting by setting: (second compound 3.16 µM, first compound 0.00316 µM) 73.1%; (second compound 3.16 µM, first compound 0.01 µM) 57.4%; under setting [23], 31.6%; under setting [24], 30.2%; under setting [25], 27.8%; under setting [26], 28.4%. Moreover, the viability, T/C by setting is: (second compound 10 µM, first compound 0.00316 µM) 53.2%; (second compound 10 µM, first compound 0.01 µM) 49.2%; under setting [27], 34.2%; under setting [28], 30.1%; under setting [29], 31.8%; under setting [30], 31.3%.
Turning to `COc1cccc(OCCCN)c1-c1cc(Nc2cnc(C#N)cn2)n[nH]1`, the viability, T/C is 93.3% and 117% and 102% (compound 0.00316 µM); 77.8% and 102% and 85.5% (compound 0.01 µM); 53.3% and 60.4% and 57.6% (compound 0.0316 µM); 22.6% and 36.9% and 41.6% (compound 0.1 µM); 11.3% and 14.1% and 8.34% (compound 0.316 µM); 10% and 10.2% and 9.09% (compound 1 µM). Further, the pIC50 (curve of compound) was 7.47 and 7.27 and 7.29.
Consider `COc1ccc([C@@H](O)c2cc(-c3ncnc4cc(N5CCOCC5)ccc34)c(F)cc2Cl)nn1` + COC1C(OC(N)=O)C(O)C(Oc2ccc3c(O)c(NC(=O)c4ccc(O)c(CC=C(C)C)c4)c(=O)oc3c2C)OC1(C)C, for which the pIC50 by setting is: under setting [1], 5.26; under setting [2], 5.33; under setting [3], 5.34; under setting [4], 5.49; under setting [5], 5.18; under setting [6], 5.18. In addition, the viability, T/C under setting [7] is 96.2%; the viability, T/C under setting [8] was 131%; the viability, T/C under setting [9] was 106%; the viability, T/C under setting [10] was 76.4%; the viability, T/C (second compound 0.0316 µM, first compound 3.16 µM) is 67.5%; the viability, T/C (second compound 0.0316 µM, first compound 10 µM) was 36.3%. For the same compound, the viability, T/C under setting [11] is 111%; the viability, T/C under setting [12] was 106%; the viability, T/C under setting [13] is 75%; the viability, T/C under setting [14] was 89.2%; the viability, T/C (second compound 0.1 µM, first compound 3.16 µM) was 64.4%; the viability, T/C (second compound 0.1 µM, first compound 10 µM) was 26.6%. Moreover, the viability, T/C runs as follows: under setting [15], 102%; under setting [16], 103%; under setting [17], 98.2%; under setting [18], 59.3%; (second compound 0.316 µM, first compound 3.16 µM) 66.3%; (second compound 0.316 µM, first compound 10 µM) 35.1%. Also, the viability, T/C was 113% under setting [19]; 125% under setting [20]; 111% under setting [21]; 85.2% under setting [22]; 51.6% (second compound 1 µM, first compound 3.16 µM); 33.9% (second compound 1 µM, first compound 10 µM). Also, the viability, T/C is 115% under setting [23]; 97.8% under setting [24]; 108% under setting [25]; 81.4% under setting [26]; 73% (second compound 3.16 µM, first compound 3.16 µM); 38.1% (second compound 3.16 µM, first compound 10 µM). The viability, T/C runs as follows: under setting [27], 95.8%; under setting [28], 72.4%; under setting [29], 96.4%; under setting [30], 70.4%; (second compound 10 µM, first compound 3.16 µM) 80%; (second compound 10 µM, first compound 10 µM) 34.8%.
With `Cc1cccc(N(C)C(=O)C2C(O)CCN2c2nc(C)cc(C(F)(F)F)c2C#N)c1` (configuration not stated), the negative-log IC50 (pIC50) (compound alone, run of 11/27/2023) is less than 5.00 and the negative logarithm of the IC50 (pIC50) (compound alone, run of 12/05/2023) was less than 5.00.
Turning to `O=C(Nc1ccc(O)c(NS(=O)(=O)c2ccc(F)cc2)c1)c1ccc(-c2ccccc2)cc1`, the viability, T/C reads like this: (compound 0.0316 µM) 105% and 85.8% and 92.8%; (compound 0.1 µM) 90.5% and 105% and 85.8%; (compound 0.316 µM) 76.6% and 90.5% and 111%; (compound 1 µM) 80.5% and 76.2% and 111%; (compound 3.16 µM) 103% and 84.1% and 91.1%; (compound 10 µM) 93.4% and 63.7% and 69.9%. Also, the pIC50 (curve of compound) was less than 5.00.

As a reminder, the viability, T/C is the ratio of treated to control. The pIC50 is the negative decadic logarithm of the IC50, by convention in mol/L.
